{"source": "patent US8492418B2", "about": "“Method of treating schizophrenia prodrome” (Yale University, priority 2005, dated 2013)", "key": {"[1]": {"test_system": "acutely exacerbated patients (schizophrenia)", "conditions": "65 acutely exacerbated patients, in addition to antipsychotic; cited from earlier work"}, "[2]": {"test_system": "prodromal patients (schizophrenia prodrome)", "test": "ongoing unpublished open label trial of ethyl-EPA, design nearly identical to the glycine pilot study", "type": "in vivo, human", "conditions": "8 weeks, n=7", "text": "Group SOPS change analysis. […] The effect sizes observed with glycine are substantially larger than those observed in my parallel studies with other medications (Table 2). Data for the placebo and olanzapine samples shown are from the published double blind randomized comparison of olanzapine vs placebo (Woods et al., 2003). […] The very large differences between the glycine effect sizes and the placebo effect sizes provide strong support for efficacy. The large differences between the glycine effect sizes and the olanzapine effect sizes are also impressive."}, "[3]": {"test_system": "chronic patients with persistent negative symptoms (schizophrenia)", "conditions": "157 chronic patients, four sites, adjunctive treatment vs placebo; cited from earlier work"}, "[4]": {"biological_target": "glycine binding site of the NMDA receptor (Homo sapiens, UniProt Q05586)", "conditions": "partial agonist; cited from earlier work"}, "prodromal patients": {"test_system": "prodromal patients", "conditions": "risperidone plus cognitive therapy plus usual care; 59 patients randomized; cited from earlier work"}, "[5]": {"test_system": "prodromal patients (schizophrenia prodrome)", "text": "I therefore treated 10 patients meeting criteria for the schizophrenia prodrome with the NMDA […] glycine, used alone without antipsychotic medication. […] To my knowledge, this represents the first attempt to use direct or indirect NMDA/glycine agonists for patients with the schizophrenia prodrome.\nThe inventor of the present invention enrolled 10 prodromal patients in an eight-week open label trial of oral glycine. The patients were seven males and three females, whose mean±sd age was 17.3±3.3 years. All ten patients met schizophrenia prodrome diagnostic criteria, attenuated positive symptom subgroup, according to the Structured Interview for Prodromal Syndromes (Miller et al., 2002). The mean Scale of Prodromal Symptoms (SOPS) total score at baseline was 39.7, and the positive and negative subscale score means were respectively 11.3 and 12.4 (Table 1).\nGlycine was administered orally as powder mixed with water at a dose titrated to 0.4 g/kg BID by week two. Concomitant medications were continued so long as there had been no dose adjustments in the eight weeks prior to enrollment and the patient continued to meet prodromal symptomatic criteria at baseline. Efficacy was assessed using the Scale of Prodromal Symptoms (SOPS). The SOPS consists of 19 items, each scored 0-6, and yields a total score and positive symptom (5 items), negative symptom (six items), disorganization (4 items), and general symptom (4 items) subscale scores.\nCategorical outcomes. […] These criteria required all five positive symptom ratings to be below the prodromal range (2 or below).\nGroup SOPS change analysis. […] Data for the placebo and olanzapine samples shown are from the published double blind randomized comparison of olanzapine vs placebo (Woods et al., 2003). Data for ethyl-EPA (an omega-3 fatty acid) are from an ongoing unpublished open label trial that follows a design nearly identical to the current glycine pilot study.\nTo accomplish this we modified for the one sample case the sequential monitoring method of O'Brien and Fleming that protects the overall alpha from […] due to multiple looks (Woods and McGlashan, 2002). […] Analyses were planned every 5 patients."}, "[6]": {"conditions": "8 weeks, n=10, baseline score as covariate"}, "[7]": {"conditions": "8 weeks, open label glycine, n=10"}, "[8]": {"conditions": "endpoint (LOCF) minus baseline, 8 weeks, n=10"}, "[9]": {"conditions": "oral glycine titrated to 0.4 g/kg BID, 8 weeks, LOCF, n=10"}}, "note": "Read-outs that look alike come from different tables or passages of the source."}
{"smiles": "CNCC(=O)O", "note": "[sarcosine]", "values": [{"measurement": "separation from placebo", "setting": "[1]", "result": "did"}]}
{"smiles": "CC/C=C\\C/C=C\\C/C=C\\C/C=C\\C/C=C\\CCCC(=O)OCC", "note": "[Ethyl-EPA, ethyl-EPA]", "values": [{"measurement": "SOPS LOCF within group effect size, DIS", "setting": "[2]", "result": "−0.05"}, {"measurement": "SOPS LOCF within group effect size, GEN", "setting": "[2]", "result": "−0.17"}, {"measurement": "SOPS LOCF within group effect size, NEG", "setting": "[2]", "result": 0.24}, {"measurement": "SOPS LOCF within group effect size, POS", "setting": "[2]", "result": 0.47}, {"measurement": "SOPS LOCF within group effect size, TOTAL", "setting": "[2]", "result": 0.18}]}
{"smiles": "NC1CONC1=O", "note": "[D-cycloserine, 4-aminoisoxazolidin-3-one, reference compound]", "values": [{"measurement": "difference among treatment groups", "setting": "[3]", "result": "no significant differences overall among groups"}, {"measurement": "activation relative to that seen with glycine, D-alanine or D-serine", "setting": "[4]", "result": "40-60%"}]}
{"smiles": "N[C@H](CO)C(=O)O", "note": "[D-serine]", "values": [{"measurement": "separation from placebo", "setting": "[1]", "result": "did not separate from placebo"}]}
{"smiles": "Cc1nc2n(c(=O)c1CCN1CCC(c3noc4cc(F)ccc34)CC1)CCCC2", "note": "[risperidone]", "values": [{"measurement": "six month conversion to psychosis rate", "setting": "prodromal patients", "result": 9.7, "unit": "%"}]}
{"smiles": "NCC(=O)O", "note": "[Glycine, glycine]", "values": [{"measurement": "group SOPS change, LOCF analysis", "setting": "[5]; 8 weeks, n=10", "result": "improved significantly as a group on the total score and on all four subscales"}, {"measurement": "group SOPS change, MMRM analysis", "setting": "[5]; 8 weeks, n=10", "result": "improved significantly as a group on the total score and on 3/4 subscales"}, {"measurement": "MMRM-based within group SOPS improvement, DIS", "setting": "[5]; [6]", "result": "3.9 ± 2.2"}, {"measurement": "MMRM-based within group SOPS improvement, GEN", "setting": "[5]; [6]", "result": "4.1 ± 3.5"}, {"measurement": "MMRM-based within group SOPS improvement, NEG", "setting": "[5]; [6]", "result": "3.0 ± 5.2"}, {"measurement": "MMRM-based within group SOPS improvement, POS", "setting": "[5]; [6]", "result": "7.4 ± 3.2"}, {"measurement": "MMRM-based within group SOPS improvement, TOTAL", "setting": "[5]; [6]", "result": "18.2 ± 9.9"}, {"measurement": "SOPS LOCF within group effect size, DIS", "setting": "[5]; [7]", "result": 1.05}, {"measurement": "SOPS LOCF within group effect size, GEN", "setting": "[5]; [7]", "result": 1.12}, {"measurement": "SOPS LOCF within group effect size, NEG", "setting": "[5]; [7]", "result": 0.74}, {"measurement": "SOPS LOCF within group effect size, POS", "setting": "[5]; [7]", "result": 1.10}, {"measurement": "SOPS LOCF within group effect size, TOTAL", "setting": "[5]; [7]", "result": 1.39}, {"measurement": "conversion to psychosis", "setting": "[5]; 10 glycine-treated patients, 8 weeks", "result": "None of the glycine-treated patients converted to psychosis"}, {"measurement": "sequential monitoring vs historical placebo (sufficiency)", "setting": "[5]; O'Brien and Fleming method modified for one sample", "result": "crossed the decision boundary for sufficiency after 10 patients"}, {"measurement": "SOPS DIS score, baseline mean", "setting": "[5]; baseline, before glycine, disorganization subscale, n=10", "result": 6.5}, {"measurement": "SOPS GEN score, baseline mean", "setting": "[5]; baseline, before glycine, general symptom subscale, n=10", "result": 9.5}, {"measurement": "SOPS TOTAL score, baseline mean", "setting": "[5]; baseline, before glycine, n=10", "result": 39.7}, {"measurement": "SOPS NEG score, baseline mean", "setting": "[5]; baseline, before glycine, negative symptom subscale, n=10", "result": 12.4}, {"measurement": "SOPS POS score, baseline mean", "setting": "[5]; baseline, before glycine, positive symptom subscale, n=10", "result": 11.3}, {"measurement": "SOPS DIS endpoint change, mean", "setting": "[5]; [8]", "result": "−3.1"}, {"measurement": "SOPS GEN endpoint change, mean", "setting": "[5]; [8]", "result": "−3.5"}, {"measurement": "SOPS NEG endpoint change, mean", "setting": "[5]; [8]", "result": "−3.0"}, {"measurement": "SOPS POS endpoint change, mean", "setting": "[5]; [8]", "result": "−5.7"}, {"measurement": "SOPS TOTAL endpoint change, mean", "setting": "[5]; [8]", "result": "−15.3"}, {"measurement": "early remission criteria met (all five positive symptom ratings 2 or below)", "setting": "[5]; of the seven completers, during 8 weeks on glycine", "result": "three met early remission criteria"}, {"measurement": "SOPS DIS score, endpoint (LOCF) mean", "setting": "[5]; [9]", "result": 3.4}, {"measurement": "SOPS GEN score, endpoint (LOCF) mean", "setting": "[5]; [9]", "result": 6.0}, {"measurement": "SOPS NEG score, endpoint (LOCF) mean", "setting": "[5]; [9]", "result": 9.4}, {"measurement": "SOPS POS score, endpoint (LOCF) mean", "setting": "[5]; [9]", "result": 5.6}, {"measurement": "SOPS TOTAL score, endpoint (LOCF) mean", "setting": "[5]; [9]", "result": 24.4}, {"measurement": "difference among treatment groups", "setting": "[3]", "result": "no significant differences overall among groups"}]}
